The test system of assay [1] is MtMetAP1c-complemented E. coli cells. Description: Inhibition of MtMetAP1c-complemented E. coli cell growth. The note with it: highest concentration (1 mM) tested.
The target of another assay is MtMetAP1c (Mycobacterium tuberculosis, UniProt P9WK19). Description: Inhibition of purified MtMetAP1c apoenzyme activated by divalent metals. The note with it: apoenzyme activated by Co(II), Ni(II), Mn(II) or Fe(II). Format: biochemical.
Sequence of MtMetAP1c (P9WK19 whole entry, looked up): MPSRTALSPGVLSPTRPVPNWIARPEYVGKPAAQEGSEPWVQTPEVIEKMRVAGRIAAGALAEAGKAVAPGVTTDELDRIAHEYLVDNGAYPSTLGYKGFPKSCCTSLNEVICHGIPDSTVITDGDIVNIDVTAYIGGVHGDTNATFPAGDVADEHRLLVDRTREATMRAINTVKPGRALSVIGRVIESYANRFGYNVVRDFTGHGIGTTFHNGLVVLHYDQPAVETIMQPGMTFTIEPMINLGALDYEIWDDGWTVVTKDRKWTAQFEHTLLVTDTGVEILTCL

For `O=C(O)c1ccc(-c2cc(Cl)ccc2Cl)o1` [compound 3], in assay [1], the “growth inhibition at the highest concentration tested” value (“growth inhibition” below) was “no inhibition”. In addition, the “metalloform selectivity of inhibition of purified MtMetAP1c” value on MtMetAP1c is listed as “selective for the Mn(II) form”.

As to `Cc1ccsc1-c1ccc(O)c(O)c1` [compound 2], the “metalloform selectivity of inhibition of purified MtMetAP1c” value on MtMetAP1c was “selective for the Fe(II) form”.

As for `Nc1nnc(SCc2ccc(F)cc2)[nH]1` [compound 5], the “growth inhibition” value in assay [1] is recorded as “no inhibition”.

For `Cc1ccc(CSc2nnc(N)[nH]2)cc1` [compound 6], the “growth inhibition” value in assay [1] is given as “no inhibition”.

As to `Cc1nc(-c2ccc(O)c(O)c2)cs1` [compound 1], at MtMetAP1c, the “metalloform selectivity of inhibition of purified MtMetAP1c” value is “selective for the Fe(II) form”.

For the origin of these results see paper PMC2820511 (Journal of medicinal chemistry, 2010).
